Laboratory results from publication PMC11435058, “Synthesis of New Thiazole-Privileged Chalcones as Tubulin Polymerization Inhibitors with Potential Anticancer Activities” (Pharmaceuticals, 2024).
Where two headings read alike, the source gives them in different places.

What was measured:
OVCAR-5 = assay: NCI-60 anticancer screen (SRB; single dose and five doses); details: Homo sapiens, OVCAR-5, 48 h, read-out: Growth Percentage
K-562 = assay: as above; details: Homo sapiens, K562, 48 h, read-out: Growth Percentage
UO-31 = assay: as above; details: Homo sapiens, UO-31, 48 h, read-out: Growth Percentage
SK-MEL-5 = assay: as above; details: Homo sapiens, SK-MEL-5, 48 h, read-out: Growth Percentage
TK-10 = assay: as above; details: Homo sapiens, TK-10, 48 h, read-out: Growth Percentage
UACC-257 = assay: as above; details: Homo sapiens, UACC-257, 48 h, read-out: Growth Percentage
OVCAR-4 = assay: as above; details: Homo sapiens, OVCAR-4, 48 h, read-out: Growth Percentage
786-0 = assay: as above; details: Homo sapiens, 786-0, 48 h, read-out: Growth Percentage
U251 = assay: as above; details: Homo sapiens, U-251, 48 h, read-out: Growth Percentage
SNB-19 = assay: cells; details: Homo sapiens, SNB-19, 48 h, read-out: Growth Percentage
HL-60(TB) = assay: NCI-60 anticancer screen (SRB; single dose and five doses); details: Homo sapiens, HL-60, 48 h, read-out: Growth Percentage
MALME-3M = assay: as above; details: Homo sapiens, 48 h, read-out: Growth Percentage
MDA-MB-435 = assay: as above; details: Homo sapiens, MDA-MB-435, 48 h, read-out: Growth Percentage
SK-OV-3 = assay: as above; details: Homo sapiens, SK-OV-3, 48 h, read-out: Growth Percentage
HT29 = assay: as above; details: Homo sapiens, HT-29, 48 h, read-out: Growth Percentage
T-47D = assay: as above; details: Homo sapiens, T47D, 48 h, read-out: Growth Percentage
MCF7 = assay: as above; details: Homo sapiens, MCF7, 48 h, read-out: Growth Percentage
HCC-2998 = assay: as above; details: Homo sapiens, HCC 2998, 48 h, read-out: Growth Percentage
NCI/ADR-RES = assay: as above; details: Homo sapiens, 48 h, read-out: Growth Percentage
NCI-H226 = assay: as above; details: Homo sapiens, NCI-H226, 48 h, read-out: Growth Percentage
[1] = test system: 60 human tumor cell lines panel; assay: NCI-60 anticancer screen, whole panel (means and ranges over the cell lines); format: cell-based; details: Homo sapiens, 48 h
NCI-H522 = assay: NCI-60 anticancer screen (SRB; single dose and five doses); details: Homo sapiens, NCI-H522, 48 h, read-out: Growth Percentage
KM12 = assay: as above; details: Homo sapiens, KM12, 48 h, read-out: Growth Percentage
MOLT-4 = assay: as above; details: Homo sapiens, MOLT-4, 48 h, read-out: Growth Percentage
OVCAR-3 = assay: cells; details: Homo sapiens, OVCAR-3, 48 h, read-out: Growth Percentage
HCT-15 = assay: NCI-60 anticancer screen (SRB; single dose and five doses); details: Homo sapiens, HCT-15, 48 h, read-out: Growth Percentage
HCT-116 = assay: as above; details: Homo sapiens, HCT-116, 48 h, read-out: Growth Percentage
A549/ATCC = assay: as above; details: Homo sapiens, A549, 48 h, read-out: Growth Percentage
LOX IMVI = assay: as above; details: Homo sapiens, 48 h, read-out: Growth Percentage
[2] = read-out: growth percentages against most of the tested cells (lowest to highest)
[3] = mean over the tested cell lines, dose of 10 μM, read-out: Mean growth percentage

| SMILES | activity at 10 µM (OVCAR-5) [%] | activity at 10 µM (K-562) [%] | activity at 10 µM (UO-31) [%] | activity at 10 µM (SK-MEL-5) [%] | activity at 10 µM (TK-10) [%] | activity at 10 µM (UACC-257) [%] | activity at 10 µM (OVCAR-4) [%] | activity at 10 µM (786-0) [%] | activity at 10 µM (U251) [%] | activity at 10 µM (SNB-19) [%] | activity at 10 µM (HL-60(TB)) [%] | activity at 10 µM (MALME-3M) [%] | activity at 10 µM (MDA-MB-435) [%] | activity at 10 µM (SK-OV-3) [%] | activity at 10 µM (HT29) [%] | activity at 10 µM (T-47D) [%] | activity at 10 µM (MCF7) [%] | activity at 10 µM (HCC-2998) [%] | activity at 10 µM (NCI/ADR-RES) [%] | activity at 10 µM (NCI-H226) [%] | also measured |
| --- | --- | --- | --- | --- | --- | --- | --- | --- | --- | --- | --- | --- | --- | --- | --- | --- | --- | --- | --- | --- | --- |
| Cc1ccc(/C=C/C(=O)c2sc(=S)[nH]c2C)cc1 [2j, (E)-1-(4-Methyl-2-Thioxo-2,3-Dihydrothiazol-5-yl)-3-(p-Tolyl)Prop-2-En-1-One] | 138 | 34.2 | 46.8 | 56.1 | 79.8 | 80.1 | 59.2 | 70.7 | 60.4 | 65.5 | 61 | 84.7 | 39 | 102 | 98.7 | 38.3 | 28.3 | 77.2 | 31 | 93.8 | activity at 10 µM [1, 2]: 11.8 to 131%; activity at 10 µM [1, 3]: 63.3%; activity at 10 µM (NCI-H522): 60.2%; activity at 10 µM (KM12): 29.8%; activity at 10 µM (MOLT-4): 68.8%; activity at 10 µM (OVCAR-3): 15%; activity at 10 µM (HCT-15): 38.6%; activity at 10 µM (HCT-116): 46.7%; activity at 10 µM (A549/ATCC): 74.3%; activity at 10 µM (LOX IMVI): 31.2% |
| Cc1[nH]c(=S)sc1C(=O)/C=C/c1ccc(N(C)C)cc1 [2k, (E)-3-(4-(Dimethylamino)Phenyl)-1-(4-Methyl-2-Thioxo-2,3-Dihydrothiazol-5-yl)Prop-2-En-1-One] | 142 | 47 | 48.3 | 51.3 | 86.8 | 64.1 | 51.2 | 91.7 | 67.1 | 71.2 | 87 | 79.4 | 58.4 | 92.6 | 94 | 32.4 | 60 | 95.3 | 56.9 | 88.3 | activity at 10 µM [1, 2]: 35.4 to 130%; activity at 10 µM [1, 3]: 77.7%; activity at 10 µM (NCI-H522): 58.9%; activity at 10 µM (KM12): 62.6%; activity at 10 µM (MOLT-4): 62.1%; activity at 10 µM (OVCAR-3): 82.2%; activity at 10 µM (HCT-15): 64.4%; activity at 10 µM (HCT-116): 72.2%; activity at 10 µM (A549/ATCC): 68.1%; activity at 10 µM (LOX IMVI): 60.2% |
| COc1ccc(/C=C/C(=O)c2sc(=S)[nH]c2C)cc1OC [2o, (E)-3-(3,4-Dimethoxyphenyl)-1-(4-Methyl-2-Thioxo-2,3-Dihydrothiazol-5-yl)Prop-2-En-1-One] | 131 | 32.4 | 49.2 | 63.1 | 75.4 | 71.4 | 47.6 | 60 | 33.7 | 61.9 | 35.6 | 89.6 | 38.9 | 76.9 | 97.7 | 44.1 | 28.9 | 41.7 | 26.9 | 80.5 | activity at 10 µM [1, 3]: 55.1%; activity at 10 µM ([1]; range over the cell lines, dose of 10 μM, read-out: growth percentages against most of the tested cells (lowest to highest)): -0.42 to 126%; activity at 10 µM (NCI-H522): 56.8%; activity at 10 µM (KM12): 42.2%; activity at 10 µM (MOLT-4): 73.8%; activity at 10 µM (OVCAR-3): 3.22%; activity at 10 µM (HCT-15): 31.3%; activity at 10 µM (HCT-116): 34.5%; activity at 10 µM (A549/ATCC): 64.6%; activity at 10 µM (LOX IMVI): 26.9% |
